In brackets after ≈: the same amount, converted by molar mass. Entries after “also recorded” stand apart in the source; their conditions may differ. Like-named read-outs stand apart in the source and are kept apart here.
Columns and labels:
[1] = 92.5% humidity for 5 days and 10 days, XRPD; cited from earlier work
[2] = prior art patents; cited from earlier work
[3] = Stability study of crystalline form on storage, XRPD; type: physicochemical; settings: 3 weeks
Method: Form CS1 of the present disclosure was stored under 25° C./60% RH and 40° C./75% RH for 3 weeks. Form CS2 of the present disclosure was stored under 25° C./60% RH, 40° C./75% RH and 60° C./75% RH for 3 weeks.

[4] = Solubility comparison study, saturated solutions measured by HPLC; type: physicochemical; settings: for Solubility in FaSSIF 1 h: FaSSIF pH=6.5, 1 h; for Solubility in FaSSIF 4 h: FaSSIF pH=6.5, 4 h; for Solubility in FaSSIF 24 h: FaSSIF pH=6.5, 24 h
Method: Saturated solutions of Form CS1, Form CS2 of the present disclosure and Pattern 4 in patent CN105960407A (hereinafter referred to as patent Pattern 4) were prepared in SGF (simulated gastric fluids), FeSSIF (fed state simulated intestinal fluids, pH=5.0), FaSSIF (fasted state simulated intestinal fluids, pH=6.5) and pure water. After equilibrated for 1 h, 4 h and 24 h, concentrations of the saturated solutions were measured by HPLC.

[5] = Mechanical stability study, XRPD before and after grinding; type: physicochemical
Excerpt: XRPD was applied to test the crystalline forms of Form CS2, Form CS3 and Pattern 4 in patent CN105960407A before and after grinding. The test results were shown in FIG. 20, FIG. 21 and FIG. 22.

[6] = Hygroscopicity by dynamic vapor sorption (DVS); type: physicochemical
Method: Dynamic Vapor Sorption (DVS) is measured via a SMS (Surface Measurement Systems Ltd.) intrinsic DVS instrument. Its control software is DVS-Intrinsic control software, and its analysis software is DVS-Intrinsic Analsis software. Typical Parameters for DVS test are as follows:
Gas and flow rate: N2, 200 mL/min
RH range: 0% RH to 95% RH
Dynamic vapor sorption (DVS) was applied to test hygroscopicity of Form CS2 and Pattern 4 in patent CN105960407A (hereinafter referred to as patent Pattern 4) on about 10 mg of samples. The weight gains at each relative humidity were recorded in a cycle of 0-95%-0 RH.

[7] = clinical trials by Gilead; cited from earlier work

## O=C(Nc1nc2cccc(-c3ccc(CN4CCS(=O)(=O)CC4)cc3)n2n1)C1CC1 [Form B of free form]
[1]
  Stability: Stability is poor. Sample was tested by XRPD after being
[2]
  Solubility in water: The solubility in water is 41.28 μg/mL. The yield is low,

## O=C(Nc1nc2cccc(-c3ccc(CN4CCS(=O)(=O)CC4)cc3)n2n1)C1CC1 [Form F of free form]
[2]
  Solubility in water: The solubility is low. The solubility in water is 50.98 μg/mL

## O=C(Nc1nc2cccc(-c3ccc(CN4CCS(=O)(=O)CC4)cc3)n2n1)C1CC1 [Form CS1]
[3]; 25° C./60% RH
  Solid form change: doesn't change; also recorded: No form change of Form CS1
[3]; 40° C./75% RH
  Solid form change: doesn't change; also recorded: No form change of Form CS1
[4]
  Solubility in FaSSIF 1 h: 120 µg/mL (≈ 282 µM)
  Solubility in FaSSIF 4 h: 110 µg/mL (≈ 259 µM)
  Solubility in FaSSIF 24 h: 120 µg/mL (≈ 282 µM)
[4]; SGF (pH=1.8)
  Solubility in SGF 1 h: 3230 µg/mL (≈ 7590 µM)
[4]; SGF (pH=1.8), 4 h
  Solubility in SGF 4 h: 3300 µg/mL (≈ 7760 µM)
[4]; SGF (pH=1.8), 24 h
  Solubility in SGF 24 h: 820 µg/mL (≈ 1930 µM)
[4]; fed state simulated intestinal fluid (FeSSIF), pH 5, fessif, thermodynamic from solid, FeSSIF pH=5.0, 1 h
  solubility at 1 h: 200 µg/mL (≈ 470 µM)
[4]; fed state simulated intestinal fluid (FeSSIF), pH 5, fessif, thermodynamic from solid, FeSSIF pH=5.0, 4 h, read-out: Solubility in FeSSIF 4 h
  solubility at 4 h: 200 µg/mL (≈ 470 µM)
[4]; fed state simulated intestinal fluid (FeSSIF), pH 5, fessif, thermodynamic from solid, FeSSIF pH=5.0, 24 h, read-out: Solubility in FeSSIF 24 h
  solubility at 24 h: 250 µg/mL (≈ 588 µM)
[4]; pure water
  Solubility in water 1 h: 120 µg/mL (≈ 282 µM)
[4]; pure water, 4 h
  Solubility in water 4 h: 90 µg/mL (≈ 212 µM)
[4]; pure water, 24 h
  Solubility in water 24 h: 210 µg/mL (≈ 494 µM)

## O=C(Nc1nc2cccc(-c3ccc(CN4CCS(=O)(=O)CC4)cc3)n2n1)C1CC1 [Pattern 4, reference compound]
[5]
  Mechanical stability (crystalline form after grinding): poor mechanical stability
[4]; listed as Patent Pattern 4
  Solubility in FaSSIF 1 h: 20 µg/mL (≈ 47 µM)
  Solubility in FaSSIF 4 h: 20 µg/mL (≈ 47 µM)
  Solubility in FaSSIF 24 h: 20 µg/mL (≈ 47 µM)
[4]; FeSSIF pH=5.0, 1 h, listed as Patent Pattern 4
  Solubility in FeSSIF 1 h: 30 µg/mL (≈ 70.5 µM)
[4]; FeSSIF pH=5.0, 4 h, listed as Patent Pattern 4
  Solubility in FeSSIF 4 h: 30 µg/mL (≈ 70.5 µM)
[4]; FeSSIF pH=5.0, 24 h, listed as Patent Pattern 4
  Solubility in FeSSIF 24 h: 30 µg/mL (≈ 70.5 µM)
[4]; SGF (pH=1.8), listed as Patent Pattern 4
  Solubility in SGF 1 h: 1020 µg/mL (≈ 2400 µM)
[4]; SGF (pH=1.8), 4 h, listed as Patent Pattern 4
  Solubility in SGF 4 h: 1070 µg/mL (≈ 2510 µM)
[4]; SGF (pH=1.8), 24 h, listed as Patent Pattern 4
  Solubility in SGF 24 h: 460 µg/mL (≈ 1080 µM)
[4]; pure water, listed as Patent Pattern 4
  Solubility in water 1 h: 20 µg/mL (≈ 47 µM)
[4]; pure water, 4 h, listed as Patent Pattern 4
  Solubility in water 4 h: 10 µg/mL (≈ 23.5 µM)
[4]; pure water, 24 h, listed as Patent Pattern 4
  Solubility in water 24 h: 10 µg/mL (≈ 23.5 µM)

## O=C(Nc1nc2cccc(-c3ccc(CN4CCS(=O)(=O)CC4)cc3)n2n1)C1CC1 [Form CS2]
[3]; 25° C./60% RH
  Solid form change: doesn't change; also recorded: No form change of Form CS2
[3]; 40° C./75% RH
  Solid form change: doesn't change; also recorded: No form change of Form CS2
[3]; 60° C./75% RH
  Solid form change: doesn't change; also recorded: No form change of Form CS2
[5]
  Mechanical stability (crystalline form after grinding): better mechanical stabilities; also recorded: don't change after grinding; also recorded: without crystal transformation observed during grinding
[4]
  Solubility in FaSSIF 1 h: 50 µg/mL (≈ 118 µM)
  Solubility in FaSSIF 4 h: 50 µg/mL (≈ 118 µM)
  Solubility in FaSSIF 24 h: 40 µg/mL (≈ 94 µM)
[4]; FeSSIF pH=5.0, 1 h
  Solubility in FeSSIF 1 h: 90 µg/mL (≈ 212 µM)
[4]; FeSSIF pH=5.0, 4 h
  Solubility in FeSSIF 4 h: 100 µg/mL (≈ 235 µM)
[4]; FeSSIF pH=5.0, 24 h
  Solubility in FeSSIF 24 h: 80 µg/mL (≈ 188 µM)
[4]; SGF (pH=1.8)
  Solubility in SGF 1 h: 1310 µg/mL (≈ 3080 µM)
[4]; SGF (pH=1.8), 4 h
  Solubility in SGF 4 h: 1320 µg/mL (≈ 3100 µM)
[4]; pure water
  Solubility in water 1 h: 40 µg/mL (≈ 94 µM)
[4]; pure water, 24 h
  Solubility in water 24 h: 40 µg/mL (≈ 94 µM)
[4]; pure water, water, thermodynamic from solid, pure water, 4 h, read-out: Solubility in water 4 h
  solubility at 4 h: 40 µg/mL (≈ 94 µM)
[4]; simulated gastric fluid (SGF), pH 1.8, simulated gastric fluid, thermodynamic from solid, SGF (pH=1.8), 24 h, read-out: Solubility in SGF 24 h
  solubility at 24 h: 560 µg/mL (≈ 1320 µM)
[6]; 80% RH, Chinese Pharmacopoeia 2015 definition
  Hygroscopicity class: almost non-hygroscopic; also recorded: almost no hygroscopic
[6]; XRPD before and after DVS cycle 0-95%-0 RH
  Form change after DVS: no form change was observed

## O=C(Nc1nc2cccc(-c3ccc(CN4CCS(=O)(=O)CC4)cc3)n2n1)C1CC1 [Form C of free form]
[1]
  Stability: Stability is poor. Sample was tested by XRPD after being
[2]
  Solubility in water: The solubility in water is 42.22 μg/mL. The yield is low

## O=C(Nc1nc2cccc(-c3ccc(CN4CCS(=O)(=O)CC4)cc3)n2n1)C1CC1 [Form E of free form]
[1]
  Stability: Stability is poor. XRPD is tested after being placed at

## O=C(Nc1nc2cccc(-c3ccc(CN4CCS(=O)(=O)CC4)cc3)n2n1)C1CC1 [Form D of free form]
[1]
  Stability: Stability is poor. XRPD is tested after being placed at
[2]
  Solubility in water: solubility in water is 55.26 μg/mL. The yield is low and is

## O=C(Nc1nc2cccc(-c3ccc(CN4CCS(=O)(=O)CC4)cc3)n2n1)C1CC1 [Filgotinib, N-[5-[4-[(1,1-dioxo-1-thiomorpholin-4-yl)methyl]phenyl][1,2,4]triazolo [1,5-a]pyridin-2-yl]cyclopropanecarboxamide]
[7]
  Anemia and abnormal increase in low density lipoprotein (LDL): does not cause an anemia and abnormal increase in low density lipoprotein (LDL)

## O=C(Nc1nc2cccc(-c3ccc(CN4CCS(=O)(=O)CC4)cc3)n2n1)C1CC1 [Form H of free form]
[2]
  Solubility in water: solubility in water is 12.77 μg/mL.
